“And” between values parts separate entries of the source, which are not always exact repeats. Equal entries are not always repeated. Where two headings read alike, the source gives them in different places.

Data set [1] in a line: Dissolution of 63-salts in 0.9% NaCl solution (LC-MS/MS). The class given is physicochemical. An excerpt: [63^−] = 9.81 × 10^−7 mol^2/L^2. […] However, starting from the cesium salt, the concentration of drug dissolved in the physiological solution maintained high values for at least one hour (around 50 × 10^−6 mol/L, with a peak higher than 100 × 10^−6 mol/L) and, for a further two hours, these values were higher than those obtained with the sodium salt. From this, it can be deduced that the 63-cesium salt would be very suitable for the extemporaneous preparation of injectable solutions in the presence of high concentrations of sodium ions.
An excess amount (~4 to 5 mg) of each salt of compound 63 was added to 5 mL of a 0.9% NaCl solution, kept under constant agitation, and thermostated at room temperature (21 ± 2 °C). At fixed time points, an aliquot was withdrawn from the solution, and centrifuged (3000 g, 10 min, RT) to separate undissolved compound and the supernatant, after dilution with MeOH, was analyzed by LC-MS/MS. An Accela UHPLC system coupled with a TSQ Quantum Access Max triple quad mass spectrometer (Thermo Fisher, Waltham, MA, USA), was employed to quantify dissolved 63 over time. UHPLC separation occurred by gradient elution, employing a Synergy Fusion C18 80Å RP-column (2.0 × 100 mm, 4 µm; Phenomenex, Bologna, Italy). Mobile phases A and B were acetonitrile and water, both with 0.1% v/v formic acid added. The following elution conditions were employed: linear gradient from 60 to 95%A in 5 min; 95% A between 5 and 8 min, returning to 60% A in 0.5 min with 2.5 min reconditioning time. Total run time: 11 min. The flow rate was 0.35 mL/min and injection volume was 10 µL. Heated electrospray (H-ESI) ion source voltage was set at 4.0 KV; capillary temperature at 270 °C. Nitrogen served both as sheath and auxiliary gas at 35 psi and 15 psi, respectively. Argon at a pressure of 1.5 mtorr was employed as collision gas. H-ESI ion source operated in positive ion mode (ESI+) and acquisition occurred in multiple reaction monitoring (MRM). Tube lens voltages (TL) and collision energies (CE) for each parent-product ion transition were optimized by flow injection analysis of 5 µM solutions of each standard in MeOH. Compound 63: m/z = 399.2 [M+H]^+ → m/z = 135.1, 107.1, 93.1 (TL = 98 V; CE = 20, 33, 37 eV, respectively). Its 1-hydroxy derivative, compound 4-(1-butyl)-4,5-dihydro-7-hydroxy-N-(1-hydroxyadamantan-3-yl)-2-methyl-5-oxo-2H-pyrazolo[4,3-b]pyridine-6-carboxamide, was employed as Internal Standard: m/z = 415.2 [M+H]^+ → m/z = 266.1, 248.1 (TL = 99 V; CE = 14, 31 eV). Calibration curves were prepared in MeOH in the 1000–10 nM concentration range starting and coefficients of determination of regression models were >0.99. Xcalibur software version 2.2 (Thermo Fisher Scientific, Inc., Waltham, MA, USA) was employed for both data acquisition and processing. […]

Data set [2] addresses T1, human CB2 receptor (Homo sapiens, UniProt P34972). Particulars: Figure 1, earlier ligands of the group; cited from earlier work.
In data set [3] the target is human recombinant CB1 receptor (Homo sapiens, UniProt P21554). As to the kind of experiment: Competition binding assay, displacement of [3H]-CP-55,940, CB1R. As for the experimental part: (§1) Binding at equilibrium was performed as previously reported. […] All compounds were tested following the procedure described by the manufacturer (Perkin Elmer, Italy). […] Ki values were calculated by applying the Cheng–Prusoff equation to the IC50 values (obtained by GraphPad) for the displacement of the bound radioligand by increasing concentrations of the test compound.

Data set [4] addresses T1, human CB2 receptor. Description: Competition binding assay, displacement of [3H]-CP-55,940, CB2R. Details: logKiCB2 (nM) Exp.: unit not given here. The method, then:
as §1

Data set [5] deals with T1, human CB2 receptor. Description: cAMP Hunter functional assay in NKH-477-stimulated CHO-K1 cells overexpressing CB2R. Particulars: for Functional behavior at CB2R: agonist mode / antagonist mode with JWH-133 4 µM challenge.
Where [6] appears, read: membranes from HEK cells, [3H]CP-55,940, mean ± SD, at least three experiments in duplicate, read-out: CB1R Ki.
The mark [7] stands for this setting: CB2R Ki, membranes from HEK cells, [3H]CP-55,940, mean ± SD, at least three experiments in duplicate.
The mark [8] stands for this setting: logKiCB2 (nM) Exp., log of experimental Ki.

T1 sequence (P34972 whole entry): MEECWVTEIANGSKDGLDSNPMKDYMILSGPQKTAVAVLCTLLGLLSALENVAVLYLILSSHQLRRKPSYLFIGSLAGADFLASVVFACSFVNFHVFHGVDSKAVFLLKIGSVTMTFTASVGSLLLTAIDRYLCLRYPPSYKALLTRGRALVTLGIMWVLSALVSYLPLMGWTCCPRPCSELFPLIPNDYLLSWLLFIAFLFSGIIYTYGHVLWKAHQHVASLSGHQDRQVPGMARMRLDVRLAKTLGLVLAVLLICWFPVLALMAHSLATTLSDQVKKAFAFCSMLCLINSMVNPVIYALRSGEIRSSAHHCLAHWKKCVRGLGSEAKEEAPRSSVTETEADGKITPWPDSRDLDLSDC
Chain of human recombinant CB1 receptor (P21554 whole entry): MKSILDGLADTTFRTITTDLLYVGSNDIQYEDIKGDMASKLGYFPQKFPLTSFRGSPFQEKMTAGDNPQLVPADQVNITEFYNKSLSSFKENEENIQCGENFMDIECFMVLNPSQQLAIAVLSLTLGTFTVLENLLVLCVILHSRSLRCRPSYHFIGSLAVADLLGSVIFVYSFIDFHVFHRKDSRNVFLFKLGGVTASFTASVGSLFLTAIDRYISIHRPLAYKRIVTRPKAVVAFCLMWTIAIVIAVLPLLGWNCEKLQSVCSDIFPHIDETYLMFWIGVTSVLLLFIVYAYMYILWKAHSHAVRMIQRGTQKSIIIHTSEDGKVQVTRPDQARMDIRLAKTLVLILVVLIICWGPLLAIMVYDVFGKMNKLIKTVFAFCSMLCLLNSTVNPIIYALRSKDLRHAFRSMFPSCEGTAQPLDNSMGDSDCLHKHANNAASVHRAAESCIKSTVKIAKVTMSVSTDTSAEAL

For the compound `CCCCn1c(=O)c(C(=O)NC23CC4CC(CC(C4)C2)C3)c(O)c2nn(C)cc21.[Cs]` [63-cesium salt, N-(Adamantan-1-yl)-4-(1-butyl)-7-hydroxy-2-methyl-5-oxo-4,5-dihydro-2H-pyrazolo[4,3-b]pyridine-6-carboxamide Cesium Salt], in data set [1] (0.9% NaCl), the “Concentration of dissolved 63 maintained for at least one hour” value is recorded as “around 50 × 10^−6 mol/L”, the “Peak concentration of dissolved 63” value is recorded as “higher than 100 × 10^−6 mol/L” and the “Time to decrease to the value consistent with the Ks of the sodium salt” value turned out to be 200 min.

For `CCCCn1c(=O)c(C(=O)NC23CC4CC(CC(C4)C2)C3)c(O)c2nn(C)cc21.[Na]` [63-sodium salt, N-(Adamantan-1-yl)-4-(1-butyl)-7-hydroxy-2-methyl-5-oxo-4,5-dihydro-2H-pyrazolo[4,3-b]pyridine-6-carboxamide Sodium Salt], in data set [1] (excess salt in 0.9% NaCl, room temperature), the “Concentration of dissolved 63, average over time points” value was found to be 6.37 µM.

For `CCCCCn1c(=O)c(C(=O)NC23CC4CC(CC(C4)C2)C3)c(O)c2nn(C)cc21` [Compound 3, reference compound], on human CB2 receptor [2], the “Selectivity Index” value is recorded as 167.

On to `CCCCn1c(=O)c(C(=O)NC2CCCCCCC2)c(O)c2nn(C)cc21` [Compound 15, 4-(1-Butyl)-N-cyclooctyl-7-hydroxy-2-methyl-5-oxo-4,5-dihydro-2H-pyrazolo[4,3-b]pyridine-6-carboxamide], for which the Ki is above 10000 nM in data set [3] (setting [6]); < 20 nM and 9.03 nM on human CB2 receptor [4] (setting [7]); 14.5 nM at human CB2 receptor [4] (setting [8]). Besides, the “SI (selectivity index for CB2R, Ki(CB1R)/Ki(CB2R))” value on human CB2 receptor [4] was above 1107. For the same compound, the “Functional behavior at CB2R” value on human CB2 receptor [5] is reported as “antagonist/inverse agonist behavior”.

Take `CCCCn1c(=O)c(C(=O)NC2CCCc3ccccc32)c(O)c2nn(C)cc21` (centres unmarked) [Compound 18, 4-(1-Butyl)-7-hydroxy-2-methyl-5-oxo-N-(1,2,3,4-tetrahydronaphthalen-1-yl)-4,5-dihydro-2H-pyrazolo[4,3-b]pyridine-6-carboxamide]: the Ki in data set [3] (setting [6]) was above 10000 nM; on human CB2 receptor [4] (setting [7]), < 20 nM and 17.3 nM; at human CB2 receptor [4] (setting [8]), 24 nM. Also, on human CB2 receptor [4], the “SI (selectivity index for CB2R, Ki(CB1R)/Ki(CB2R))” value was above 578. For the same compound, at human CB2 receptor [5], the “Functional behavior at CB2R” value is reported as “antagonist/inverse agonist behavior”.

In turn, `Cn1cc2c(n1)c(O)c(C(=O)NC13CC4CC(CC(C4)C1)C3)c(=O)n2Cc1ccccc1` [Compound 26, N-(Adamantan-1-yl)-4-benzyl-7-hydroxy-2-methyl-5-oxo-4,5-dihydro-2H-pyrazolo[4,3-b]pyridine-6-carboxamide] displayed a melting point of 180 to 183 °C. The Ki on human CB2 receptor [4] (setting [7]) was < 20 nM and 0.48 nM. Further, at human CB2 receptor [5], the “Functional behavior at CB2R” value is “antagonist/inverse agonist behavior”.

Turning to `CCCCn1c(=O)c(C(=O)NC23CC4CC(CC(C4)C2)C3)c(O)c2nn(CC)cc21` [Compound 35, N-(Adamantan-1-yl)-4-(1-butyl)-2-ethyl-7-hydroxy-5-oxo-4,5-dihydro-2H-pyrazolo[4,3-b]pyridine-6-carboxamide], the Ki in data set [3] (setting [6]) is 102 ± 15.2 nM; on human CB2 receptor [4] (setting [7]) it was < 20 nM and 0.45 nM. Besides, the “SI (selectivity index for CB2R, Ki(CB1R)/Ki(CB2R))” value on human CB2 receptor [4] was 227. For the same compound, on human CB2 receptor [4] (log of experimental Ki), the “logKiCB2 (nM) Exp.” value is recorded as −0.35. Besides, the “Functional behavior at CB2R” value at human CB2 receptor [5] is given as “antagonist/inverse agonist behavior”.

`CCCCCn1c(=O)c(C(=O)NC23CC4CC(CC(C4)C2)C3)c(O)c2c1c(C)nn2C` [Compound 52, N-(Adamantan-1-yl)-7-hydroxy-1,3-dimethyl-5-oxo-4-(1-pentyl)-4,5-dihydro-1H-pyrazolo[4,3-b]pyridine-6-carboxamide] returned a melting point of 167 to 169 °C. Also, the Ki in data set [3] (setting [6]) is above 10000 nM. In addition, the “SI (selectivity index for CB2R, Ki(CB1R)/Ki(CB2R))” value on human CB2 receptor [4] is recorded as above 293. In addition, affinity at human CB2 receptor [4] (setting [7]) was put at a Ki of 34.1 ± 4.88 nM. In addition, the “logKiCB2 (nM) Exp.” value at human CB2 receptor [4] (log of experimental Ki) came out at 1.53.

`Cc1c2c(nn1C)c(O)c(C(=O)NC13CC4CC(CC(C4)C1)C3)c(=O)n2C(C)C` [Compound 53, N-(Adamantan-1-yl)-7-hydroxy-4-isopropyl-2,3-dimethyl-5-oxo-4,5-dihydro-2H-pyrazolo[4,3-b]pyridine-6-carboxamide] had a melting point above 260 °C. Further, the Ki in data set [3] (setting [6]) was above 10000 nM. The “CB2 receptor affinity in words” value on human CB2 receptor [4] was “inactive”. For the same compound, on human CB2 receptor [4] (membranes from HEK cells, [3H]CP-55,940, mean ± SD, at least three experiments in duplicate, read-out: CB2R Ki), the Ki was above 10000 nM.

`CCCCn1c(=O)c(C(=O)NC23CC4CC(CC(C4)C2)C3)c(O)c2nn(C)c(C)c21` [Compound 54, N-(Adamantan-1-yl)-4-(1-butyl)-7-hydroxy-2,3-dimethyl-5-oxo-4,5-dihydro-2H-pyrazolo[4,3-b]pyridine-6-carboxamide] had a melting point of 213 to 216 °C. In data set [3], the “CB1 receptor activity in words” value was “not active at all”. In data set [3] (setting [6]), the inhibition constant (Ki) was above 10000 nM. On human CB2 receptor [4] (setting [7]), the Ki is < 20 nM and 2.16 nM. The “logKiCB2 (nM) Exp.” value at human CB2 receptor [4] (log of experimental Ki) was determined as 0.33.

For the compound `CCCCCn1c(=O)c(C(=O)NC23CC4CC(CC(C4)C2)C3)c(O)c2nn(C)c(C)c21` [Compound 55, N-(Adamantan-1-yl)-7-hydroxy-2,3-dimethyl-5-oxo-4-(1-pentyl)-4,5-dihydro-2H-pyrazolo[4,3-b]pyridine-6-carboxamide], the melting point was found to be 67 °C. Moreover, the “CB1 receptor activity in words” value in data set [3] is “not active at all”. Moreover, the Ki in data set [3] (setting [6]) was above 10000 nM. Also, the Ki on human CB2 receptor [4] (setting [7]) was < 20 nM and 2.11 nM. Further, at human CB2 receptor [4] (log of experimental Ki), the “logKiCB2 (nM) Exp.” value turned out to be 0.32. Besides, the “Functional behavior at CB2R” value at human CB2 receptor [5] is on record as “antagonist/inverse agonist behavior”.

Turning to `CC(C)n1c(=O)c(C(=O)NC23CC4CC(CC(C4)C2)C3)c(O)c2c1cnn2C` [Compound 57], the Ki in data set [3] is above 10000 nM. For the same compound, the “SI (selectivity index for CB2R, Ki(CB1R)/Ki(CB2R))” value on human CB2 receptor [4] was above 184. The affinity on human CB2 receptor [4] (setting [7]) corresponds to a Ki of 54.3 ± 12.3 nM. Also, the “logKiCB2 (nM) Exp.” value on human CB2 receptor [4] (log of experimental Ki) worked out at 1.73. In addition, on human CB2 receptor [5], it took 1590 nM to reach a half-maximal effect (EC50) and the “Functional behavior at CB2R” value is given as “typical agonist behavior”. On human CB2 receptor [5] (agonist mode, 25 µM NKH477), the Emax is given as 84.05.

Values taken from PMC10343475, “Systematic Modification of the Substitution Pattern of the 7-Hydroxy-5-oxopyrazolo[4,3-b]pyridine-6-carboxamide Scaffold Enabled the Discovery of New Ligands with High Affinity and Selectivity for the Cannabinoid Type 2 Receptor” (Molecules, 2023).
